Experimental data from US20250171437A1 (Agios Pharmaceuticals,Inc., priority 2022, published 2025).

Biological target: T1, human PAH with the R408W mutation (A375 R408W cells) (Homo sapiens, UniProt P00439, R408W)
T1 construct: expressed in transfected cells
T1 sequence (P00439 1-452 R408W): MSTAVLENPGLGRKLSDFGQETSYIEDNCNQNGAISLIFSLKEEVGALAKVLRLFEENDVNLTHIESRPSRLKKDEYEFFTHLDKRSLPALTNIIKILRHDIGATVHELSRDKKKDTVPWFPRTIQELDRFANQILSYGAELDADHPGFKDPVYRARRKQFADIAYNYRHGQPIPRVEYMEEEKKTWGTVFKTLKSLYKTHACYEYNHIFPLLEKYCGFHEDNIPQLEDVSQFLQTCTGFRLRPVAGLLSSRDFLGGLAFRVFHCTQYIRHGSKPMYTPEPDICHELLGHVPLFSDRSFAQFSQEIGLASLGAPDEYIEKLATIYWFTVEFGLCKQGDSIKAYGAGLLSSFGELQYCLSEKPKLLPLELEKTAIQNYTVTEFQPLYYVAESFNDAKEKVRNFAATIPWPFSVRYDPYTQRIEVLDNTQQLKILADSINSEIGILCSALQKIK
Assay: Cell Based Phenylalanine Flux Assay
Conditions: A375 R408W cells; 24 hrs with compound, then 20 μM sepiapterin and 800 μM 13C9,15N-Phenylalanine for 4 hours; 13C-Tyrosine by LC-MS; average where tested multiple times
In short: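 A375 cells stably expressing lentiviral human PAH R408W were treated with compounds (10-point 2-fold dilutions, 0.5% DMSO, duplicate) for 24 h at 37 °C. Then 20 μM sepiapterin and 800 μM 13C9,15N-Phe were added for 4 h; media 13C-Tyr was measured by LC-MS to give AC50.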

Compound	AC50
O=C(CCc1ncco1)N1CCc2[nH]cnc2[C@H]1c1nc2c(F)cccc2o1 [Example 887, (S)-1-(4-(4-fluorobenzo[d]oxazol-2-yl)-6,7-dihydro-1H-imidazo[4,5-c]pyridin-5(4H)-yl)-3-(oxazol-2-yl)propan-1-one]	500 to 1000 nM
Cc1ccc(C)c2oc([C@@H]3c4nc[nH]c4CCN3C(=O)c3ocnc3C(F)F)nc12 [Example 890, (S)-(4-(difluoromethyl)oxazol-5-yl)(4-(4,7-dimethylbenzo[d]oxazol-2-yl)-6,7-dihydro-1H-imidazo[4,5-c]pyridin-5(4H)-yl)methanone]	≤ 500 nM
Cn1cnc(-c2nc(C(F)F)c(C(=O)N3CCc4[nH]cnc4[C@@H]3c3nc4cccc(F)c4o3)o2)c1 [Example 891, (R)-(4-(difluoromethyl)-2-(1-methyl-1H-imidazol-4-yl)oxazol-5-yl)(4-(7-fluorobenzo[d]oxazol-2-yl)-1,4,6,7-tetrahydro-5H-imidazo[4,5-c]pyridin-5-yl)methanone]	1000 to 5000 nM
Cn1cnc(-c2nc(C(F)F)c(C(=O)N3CCc4[nH]cnc4[C@H]3c3nc4cccc(F)c4o3)o2)c1 [Example 892, (S)-(4-(difluoromethyl)-2-(1-methyl-1H-imidazol-4-yl)oxazol-5-yl)(4-(7-fluorobenzo[d]oxazol-2-yl)-1,4,6,7-tetrahydro-5H-imidazo[4,5-c]pyridin-5-yl)methanone]	≤ 500 nM
CC(C)(O)c1ncc(C(=O)N2CCc3[nH]cnc3[C@H]2c2nc3c(F)cccc3o2)o1 [Example 893, (S)-(4-(4-fluorobenzo[d]oxazol-2-yl)-6,7-dihydro-1H-imidazo[4,5-c]pyridin-5(4H)-yl)(2-(2-hydroxypropan-2-yl)oxazol-5-yl)methanone]	1000 to 5000 nM
CC(C)(O)c1ncc(C(=O)N2CCc3[nH]cnc3[C@@H]2c2nc3c(F)cccc3o2)o1 [Example 894, (R)-(4-(4-fluorobenzo[d]oxazol-2-yl)-6,7-dihydro-1H-imidazo[4,5-c]pyridin-5(4H)-yl)(2-(2-hydroxypropan-2-yl)oxazol-5-yl)methanone]	1000 to 5000 nM
O=C(c1cnn2cc(N3CCC(O)CC3)ccc12)N1CCc2[nH]cnc2[C@H]1c1nc2c(F)ccc(F)c2o1 [Example 895, (S)-(4-(4,7-difluorobenzo[d]oxazol-2-yl)-6,7-dihydro-1H-imidazo[4,5-c]pyridin-5(4H)-yl)(6-(4-hydroxypiperidin-1-yl)pyrazolo[1,5-a]pyridin-3-yl)methanone]	1000 to 5000 nM
O=C(c1cnn2cc(N3CCC(O)CC3)ccc12)N1CCc2[nH]cnc2[C@@H]1c1nc2c(F)ccc(F)c2o1 [Example 896, (R)-(4-(4,7-difluorobenzo[d]oxazol-2-yl)-6,7-dihydro-1H-imidazo[4,5-c]pyridin-5(4H)-yl)(6-(4-hydroxypiperidin-1-yl)pyrazolo[1,5-a]pyridin-3-yl)methanone]	≥ 5000 nM
Cc1ccc(F)c2oc([C@@H]3c4nc[nH]c4CCN3C(=O)c3ocnc3C(F)F)nc12 [Example 898, (S)-(4-(difluoromethyl)oxazol-5-yl)(4-(7-fluoro-4-methylbenzo[d]oxazol-2-yl)-6,7-dihydro-1H-imidazo[4,5-c]pyridin-5(4H)-yl)methanone]	≤ 500 nM
[2H][C@@]1(c2nc3cccc(F)c3o2)c2nc[nH]c2CCN1C(=O)c1ocnc1C(F)F [Example 899, (S)-(4-(difluoromethyl)oxazol-5-yl)(4-deuterium-4-(7-fluorobenzo[d]oxazol-2-yl)-6,7-dihydro-1H-imidazo[4,5-c]pyridin-5(4H)-yl)methanone]	≤ 500 nM
O=C(c1ocnc1C(F)F)N1CCc2[nH]cnc2[C@@H]1c1nc2cccc(F)c2o1 [Example 900, (R)-(4-(difluoromethyl)oxazol-5-yl)(4-deuterium-4-(7-fluorobenzo[d]oxazol-2-yl)-6,7-dihydro-1H-imidazo[4,5-c]pyridin-5(4H)-yl)methanone]	500 to 1000 nM
O=C(c1ocnc1C(F)F)N1CC2(CC2)c2[nH]cnc2[C@H]1c1nc2cccc(F)c2o1 [Example 911, (S)-(4-(difluoromethyl)oxazol-5-yl)(4′-(7-fluorobenzo[d]oxazol-2-yl)spiro[cyclopropane-1,7′-imidazo[4,5-c]pyridin]-5′(1′H,4′H,6′H)-yl)methanone]	≤ 500 nM

Next, values leading:

AC50	Compound
1000 to 5000 nM	CCn1cnnc1C(=O)N1CCc2[nH]cnc2[C@@H]1c1nc2cc(F)ccc2o1 [Example 886, (R)-(4-ethyl-4H-1,2,4-triazol-3-yl)(4-(5-fluorobenzo[d]oxazol-2-yl)-6,7-dihydro-1H-imidazo[4,5-c]pyridin-5(4H)-yl)methanone]
500 to 1000 nM	Cc1cccc2oc([C@@H]3c4nc[nH]c4CCN3C(=O)c3ncnn3C)nc12 [Example 901, (S)-(1-methyl-1H-1,2,4-triazol-5-yl)(4-(4-methylbenzo[d]oxazol-2-yl)-6,7-dihydro-1H-imidazo[4,5-c]pyridin-5(4H)-yl)methanone]
1000 to 5000 nM	Cc1cccc2oc([C@H]3c4nc[nH]c4CCN3C(=O)c3ncnn3C)nc12 [Example 902, (R)-(1-methyl-1H-1,2,4-triazol-5-yl)(4-(4-methylbenzo[d]oxazol-2-yl)-6,7-dihydro-1H-imidazo[4,5-c]pyridin-5(4H)-yl)methanone]
1000 to 5000 nM	COc1cccc2oc([C@@H]3c4nc[nH]c4CCN3C(=O)c3ncnn3C)nc12 [Example 903, (S)-(4-(4-methoxybenzo[d]oxazol-2-yl)-6,7-dihydro-1H-imidazo[4,5-c]pyridin-5(4H)-yl)(1-methyl-1H-1,2,4-triazol-5-yl)methanone]
≥ 5000 nM	COc1cccc2oc([C@H]3c4nc[nH]c4CCN3C(=O)c3ncnn3C)nc12 [Example 904, (R)-(4-(4-methoxybenzo[d]oxazol-2-yl)-6,7-dihydro-1H-imidazo[4,5-c]pyridin-5(4H)-yl)(1-methyl-1H-1,2,4-triazol-5-yl)methanone]
≤ 500 nM	[2H][C@@]1(c2nc3cc(F)ccc3o2)c2nc[nH]c2CCN1C(=O)c1oc(C(C)(C)O)nc1C(F)F [Example 905]
1000 to 5000 nM	Cc1nc(C(=O)N2CCc3[nH]cnc3[C@H]2c2nc3cccc(C)c3o2)n(C)n1 [Example 907, (S)-(1,3-dimethyl-1H-1,2,4-triazol-5-yl)(4-(7-methylbenzo[d]oxazol-2-yl)-6,7-dihydro-1H-imidazo[4,5-c]pyridin-5(4H)-yl)methanone]
1000 to 5000 nM	Cc1nc(C(=O)N2CCc3[nH]cnc3[C@@H]2c2nc3cccc(C)c3o2)n(C)n1 [Example 908, (R)-(1,3-dimethyl-1H-1,2,4-triazol-5-yl)(4-(7-methylbenzo[d]oxazol-2-yl)-6,7-dihydro-1H-imidazo[4,5-c]pyridin-5(4H)-yl)methanone]
1000 to 5000 nM	COc1cccc2nc([C@@H]3c4nc[nH]c4CCN3C(=O)c3nc(C)nn3C)oc12 [Example 909, (S)-(1,3-dimethyl-1H-1,2,4-triazol-5-yl)(4-(7-methoxybenzo[d]oxazol-2-yl)-6,7-dihydro-1H-imidazo[4,5-c]pyridin-5(4H)-yl)methanone]
≥ 5000 nM	COc1cccc2nc([C@H]3c4nc[nH]c4CCN3C(=O)c3nc(C)nn3C)oc12 [Example 910, (R)-(1,3-dimethyl-1H-1,2,4-triazol-5-yl)(4-(7-methoxybenzo[d]oxazol-2-yl)-6,7-dihydro-1H-imidazo[4,5-c]pyridin-5(4H)-yl)methanone]
